According to patent US9492471B2, “Methods of treating a disease or disorder associated with Bruton'S Tyrosine Kinase” (Celgene Avilomics Research, Inc., priority 2013, dated 2016):
Read-outs that look alike come from different tables or passages of the source.

Experiments:
Test in all cases: HotSpot kinase profiling
Assay type in all cases: biochemical
CAMK1b = target: T1, CAMK1b (Homo sapiens, UniProt Q6P2M8)
T1 construct: purchased Reaction Biology Corp
In short: (§1)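 Radiometric kinase assay with P81 filter capture; each kinase was added to fresh substrate plus cofactors in reaction buffer and incubated 2 h at room temperature. Unreacted phosphate was washed off with 0.1% phosphoric acid before detection; percent inhibition is relative to DMSO control, averaged over replicates.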

JAK3 = target: T2, JAK3 (Homo sapiens, UniProt P52333)
T2 construct: purchased Reaction Biology Corp
T2 sequence (P52333 1-1124): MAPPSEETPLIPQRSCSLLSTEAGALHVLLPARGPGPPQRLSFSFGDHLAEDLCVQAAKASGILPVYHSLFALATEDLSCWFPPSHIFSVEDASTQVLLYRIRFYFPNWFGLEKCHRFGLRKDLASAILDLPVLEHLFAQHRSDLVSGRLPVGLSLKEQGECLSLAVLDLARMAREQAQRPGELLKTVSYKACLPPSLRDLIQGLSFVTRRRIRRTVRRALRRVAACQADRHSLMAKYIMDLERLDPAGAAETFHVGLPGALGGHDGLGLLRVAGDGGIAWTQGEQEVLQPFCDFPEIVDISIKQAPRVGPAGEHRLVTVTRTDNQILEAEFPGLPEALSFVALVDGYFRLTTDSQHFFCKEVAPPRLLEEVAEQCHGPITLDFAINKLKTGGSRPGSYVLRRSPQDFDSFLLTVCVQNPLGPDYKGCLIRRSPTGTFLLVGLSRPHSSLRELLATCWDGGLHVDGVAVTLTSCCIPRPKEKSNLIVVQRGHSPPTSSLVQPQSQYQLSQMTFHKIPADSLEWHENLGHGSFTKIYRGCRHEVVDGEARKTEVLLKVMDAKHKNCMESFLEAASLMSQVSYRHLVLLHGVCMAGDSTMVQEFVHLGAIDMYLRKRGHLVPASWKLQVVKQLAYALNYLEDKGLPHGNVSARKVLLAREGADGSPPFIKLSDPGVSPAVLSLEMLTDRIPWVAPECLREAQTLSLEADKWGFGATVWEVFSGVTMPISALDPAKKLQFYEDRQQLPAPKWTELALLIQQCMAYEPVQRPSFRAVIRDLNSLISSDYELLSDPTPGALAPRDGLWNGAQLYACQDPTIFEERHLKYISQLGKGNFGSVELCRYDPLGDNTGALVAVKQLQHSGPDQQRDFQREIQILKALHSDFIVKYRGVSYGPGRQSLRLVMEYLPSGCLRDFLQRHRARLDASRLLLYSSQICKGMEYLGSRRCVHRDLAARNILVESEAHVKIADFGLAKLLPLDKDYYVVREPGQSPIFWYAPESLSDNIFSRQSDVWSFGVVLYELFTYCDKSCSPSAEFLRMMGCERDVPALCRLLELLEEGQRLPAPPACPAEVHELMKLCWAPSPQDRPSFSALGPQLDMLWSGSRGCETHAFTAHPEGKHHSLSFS
In short: as §1

IKKa/CHUK = target: T3, IKKa/CHUK (Homo sapiens, UniProt O15111)
T3 construct: purchased Reaction Biology Corp
T3 sequence (O15111 1-745): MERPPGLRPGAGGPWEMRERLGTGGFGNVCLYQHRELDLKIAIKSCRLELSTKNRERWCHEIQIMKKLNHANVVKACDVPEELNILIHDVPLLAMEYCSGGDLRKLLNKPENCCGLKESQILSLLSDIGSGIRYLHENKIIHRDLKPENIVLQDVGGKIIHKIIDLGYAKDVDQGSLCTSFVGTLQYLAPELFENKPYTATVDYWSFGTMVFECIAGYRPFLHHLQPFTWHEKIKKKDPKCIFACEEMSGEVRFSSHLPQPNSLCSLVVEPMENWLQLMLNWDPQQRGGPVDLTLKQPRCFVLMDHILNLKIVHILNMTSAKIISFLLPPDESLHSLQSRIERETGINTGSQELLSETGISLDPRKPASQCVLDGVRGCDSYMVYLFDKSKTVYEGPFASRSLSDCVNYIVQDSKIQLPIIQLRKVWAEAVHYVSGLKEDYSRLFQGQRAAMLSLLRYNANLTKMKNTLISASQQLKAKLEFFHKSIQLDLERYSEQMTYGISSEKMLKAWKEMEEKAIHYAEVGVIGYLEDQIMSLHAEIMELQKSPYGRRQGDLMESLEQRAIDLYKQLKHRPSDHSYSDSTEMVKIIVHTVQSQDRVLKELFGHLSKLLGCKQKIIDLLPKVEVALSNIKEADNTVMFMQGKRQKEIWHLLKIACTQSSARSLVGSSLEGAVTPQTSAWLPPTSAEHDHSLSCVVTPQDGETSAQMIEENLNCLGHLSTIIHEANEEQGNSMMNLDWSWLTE
In short: as §1

ACK1 = target: T4, ACK1 (Homo sapiens, UniProt Q07912)
T4 construct: purchased Reaction Biology Corp
In short: as §1

SIK1 = target: T5, SIK1 (Homo sapiens, UniProt P57059)
T5 construct: purchased Reaction Biology Corp
In short: as §1

ERK5/MAPK7 = target: T6, ERK5/MAPK7 (Homo sapiens, UniProt Q13164)
T6 construct: purchased Reaction Biology Corp
In short: as §1

ZIPK/DAPK3 = target: T7, ZIPK/DAPK3 (Homo sapiens, UniProt O43293)
T7 construct: purchased Reaction Biology Corp
In short: as §1

DYRK1B = target: T8, DYRK1B (Homo sapiens, UniProt Q9Y463)
T8 construct: purchased Reaction Biology Corp
In short: as §1

[1] = read-out: % Enzyme Activity (relative to DMSO controls) Run 1
[2] = read-out: % Enzyme Activity (relative to DMSO controls) Run 2

T4 sequence (Q07912 whole entry): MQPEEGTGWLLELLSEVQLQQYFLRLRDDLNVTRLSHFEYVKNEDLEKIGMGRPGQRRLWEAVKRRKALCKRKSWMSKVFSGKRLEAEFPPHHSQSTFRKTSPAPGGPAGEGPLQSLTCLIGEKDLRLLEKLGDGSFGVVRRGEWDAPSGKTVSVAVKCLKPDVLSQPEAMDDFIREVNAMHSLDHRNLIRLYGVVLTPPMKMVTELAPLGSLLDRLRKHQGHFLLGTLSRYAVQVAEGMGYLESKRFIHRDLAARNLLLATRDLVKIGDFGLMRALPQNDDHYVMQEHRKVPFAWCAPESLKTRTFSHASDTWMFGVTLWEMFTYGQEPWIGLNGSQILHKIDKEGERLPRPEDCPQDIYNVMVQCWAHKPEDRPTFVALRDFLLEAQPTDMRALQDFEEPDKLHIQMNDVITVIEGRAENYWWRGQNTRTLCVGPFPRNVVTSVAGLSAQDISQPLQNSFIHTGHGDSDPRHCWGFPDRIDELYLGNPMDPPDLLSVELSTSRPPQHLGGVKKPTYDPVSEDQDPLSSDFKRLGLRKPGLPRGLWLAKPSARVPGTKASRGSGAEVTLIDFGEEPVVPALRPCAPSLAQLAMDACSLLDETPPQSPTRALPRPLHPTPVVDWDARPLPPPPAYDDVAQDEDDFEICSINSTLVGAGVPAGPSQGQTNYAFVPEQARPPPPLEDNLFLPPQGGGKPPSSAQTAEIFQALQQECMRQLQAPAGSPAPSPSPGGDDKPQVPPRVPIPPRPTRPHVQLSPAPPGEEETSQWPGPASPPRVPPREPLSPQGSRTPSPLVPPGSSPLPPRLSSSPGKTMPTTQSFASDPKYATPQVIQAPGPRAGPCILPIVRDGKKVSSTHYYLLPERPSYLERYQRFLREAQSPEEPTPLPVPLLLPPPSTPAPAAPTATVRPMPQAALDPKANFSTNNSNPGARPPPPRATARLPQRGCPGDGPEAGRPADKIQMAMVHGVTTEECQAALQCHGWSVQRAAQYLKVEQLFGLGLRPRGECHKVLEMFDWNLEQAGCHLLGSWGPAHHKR
T8 sequence (Q9Y463 whole entry): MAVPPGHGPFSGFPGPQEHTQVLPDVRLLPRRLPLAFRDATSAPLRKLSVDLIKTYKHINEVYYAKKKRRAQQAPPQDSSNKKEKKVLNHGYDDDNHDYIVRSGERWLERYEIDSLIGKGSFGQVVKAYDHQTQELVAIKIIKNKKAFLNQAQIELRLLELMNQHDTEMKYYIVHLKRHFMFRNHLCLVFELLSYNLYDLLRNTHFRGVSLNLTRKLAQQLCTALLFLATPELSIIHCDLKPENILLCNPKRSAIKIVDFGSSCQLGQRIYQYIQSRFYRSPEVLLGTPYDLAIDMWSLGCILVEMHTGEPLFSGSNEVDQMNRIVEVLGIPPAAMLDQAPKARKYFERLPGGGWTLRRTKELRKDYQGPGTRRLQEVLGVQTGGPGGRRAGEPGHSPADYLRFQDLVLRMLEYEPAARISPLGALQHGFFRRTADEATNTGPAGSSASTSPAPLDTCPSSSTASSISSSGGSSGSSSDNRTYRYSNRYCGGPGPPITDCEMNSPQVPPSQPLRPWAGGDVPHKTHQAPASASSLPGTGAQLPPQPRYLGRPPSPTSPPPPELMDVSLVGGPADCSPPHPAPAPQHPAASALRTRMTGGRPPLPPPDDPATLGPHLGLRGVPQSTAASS
T7 sequence (O43293 whole entry): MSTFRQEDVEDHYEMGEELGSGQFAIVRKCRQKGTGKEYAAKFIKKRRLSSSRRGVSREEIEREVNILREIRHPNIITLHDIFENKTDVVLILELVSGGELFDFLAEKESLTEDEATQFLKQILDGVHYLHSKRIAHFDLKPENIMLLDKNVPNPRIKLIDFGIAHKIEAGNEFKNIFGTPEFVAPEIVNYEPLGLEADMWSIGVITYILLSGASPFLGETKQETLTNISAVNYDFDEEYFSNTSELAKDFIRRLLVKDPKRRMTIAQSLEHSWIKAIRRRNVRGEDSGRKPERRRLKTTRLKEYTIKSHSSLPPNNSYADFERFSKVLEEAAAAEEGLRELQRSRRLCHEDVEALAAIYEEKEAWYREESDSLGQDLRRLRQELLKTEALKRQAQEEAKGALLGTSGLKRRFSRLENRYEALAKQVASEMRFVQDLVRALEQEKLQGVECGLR
T5 sequence (P57059 whole entry): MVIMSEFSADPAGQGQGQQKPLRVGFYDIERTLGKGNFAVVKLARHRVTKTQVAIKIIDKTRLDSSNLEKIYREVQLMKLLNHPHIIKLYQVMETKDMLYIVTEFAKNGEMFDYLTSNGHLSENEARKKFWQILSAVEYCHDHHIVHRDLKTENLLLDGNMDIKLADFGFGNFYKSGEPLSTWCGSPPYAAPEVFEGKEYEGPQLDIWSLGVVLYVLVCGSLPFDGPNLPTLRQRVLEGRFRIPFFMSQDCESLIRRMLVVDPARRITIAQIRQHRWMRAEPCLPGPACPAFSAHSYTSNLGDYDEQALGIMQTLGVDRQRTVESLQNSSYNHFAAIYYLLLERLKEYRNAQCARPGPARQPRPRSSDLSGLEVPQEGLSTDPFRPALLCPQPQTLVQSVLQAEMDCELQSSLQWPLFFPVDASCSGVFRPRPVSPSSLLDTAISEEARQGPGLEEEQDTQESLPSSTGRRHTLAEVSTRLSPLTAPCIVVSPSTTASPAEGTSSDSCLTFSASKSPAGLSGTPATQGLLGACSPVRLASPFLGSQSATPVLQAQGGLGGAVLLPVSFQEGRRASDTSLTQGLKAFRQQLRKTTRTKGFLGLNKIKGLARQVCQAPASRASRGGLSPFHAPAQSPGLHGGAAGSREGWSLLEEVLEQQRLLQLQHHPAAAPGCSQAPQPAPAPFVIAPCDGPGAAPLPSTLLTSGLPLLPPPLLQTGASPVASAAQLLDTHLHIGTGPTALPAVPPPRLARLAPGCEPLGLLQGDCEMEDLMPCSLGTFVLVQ
T6 sequence (Q13164 whole entry): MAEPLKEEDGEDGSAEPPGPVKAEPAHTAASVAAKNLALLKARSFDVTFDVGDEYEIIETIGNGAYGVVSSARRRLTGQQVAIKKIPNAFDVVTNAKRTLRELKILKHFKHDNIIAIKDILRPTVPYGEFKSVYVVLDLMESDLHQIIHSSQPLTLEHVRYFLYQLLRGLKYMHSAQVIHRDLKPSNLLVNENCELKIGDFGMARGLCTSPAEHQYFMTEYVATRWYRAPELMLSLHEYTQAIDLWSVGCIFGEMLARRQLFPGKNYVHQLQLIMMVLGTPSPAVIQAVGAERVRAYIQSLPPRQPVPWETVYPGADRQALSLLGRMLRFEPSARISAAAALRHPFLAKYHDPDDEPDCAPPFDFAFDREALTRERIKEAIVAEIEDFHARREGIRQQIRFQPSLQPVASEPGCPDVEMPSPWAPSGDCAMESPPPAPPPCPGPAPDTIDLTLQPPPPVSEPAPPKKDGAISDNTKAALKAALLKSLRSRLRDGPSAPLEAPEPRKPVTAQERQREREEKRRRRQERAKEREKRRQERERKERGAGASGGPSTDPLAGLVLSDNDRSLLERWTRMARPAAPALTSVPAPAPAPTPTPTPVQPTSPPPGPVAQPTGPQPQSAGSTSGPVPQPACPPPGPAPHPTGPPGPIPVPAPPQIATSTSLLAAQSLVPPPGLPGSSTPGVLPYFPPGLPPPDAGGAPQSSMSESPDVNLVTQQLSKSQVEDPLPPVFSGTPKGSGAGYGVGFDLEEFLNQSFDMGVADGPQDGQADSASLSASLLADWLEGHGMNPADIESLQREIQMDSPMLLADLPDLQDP
T1 sequence (Q6P2M8 whole entry): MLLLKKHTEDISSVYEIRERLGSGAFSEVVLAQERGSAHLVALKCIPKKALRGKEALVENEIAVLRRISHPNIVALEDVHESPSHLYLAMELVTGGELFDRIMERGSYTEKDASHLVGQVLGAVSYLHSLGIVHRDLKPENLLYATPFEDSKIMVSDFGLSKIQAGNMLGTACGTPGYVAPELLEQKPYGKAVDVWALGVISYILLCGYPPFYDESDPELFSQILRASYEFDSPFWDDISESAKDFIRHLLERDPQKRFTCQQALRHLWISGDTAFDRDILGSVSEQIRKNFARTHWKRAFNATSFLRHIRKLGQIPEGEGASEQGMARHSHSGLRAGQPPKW

Structure (SMILES): C=CC(=O)Nc1cccc(Nc2nc(Nc3ccc(OCCOC)c(F)c3)ncc2F)c1 [Compound 2]
- inhibition at 3 µM (CAMK1b): -4.43%
- remaining activity at 3 µM (CAMK1b; [1]): 104%
- remaining activity at 3 µM (CAMK1b; [2]): 105%
- inhibition at 3 µM (JAK3): 97.4%
- remaining activity at 3 µM (JAK3; [1]): 2.53%
- remaining activity at 3 µM (JAK3; [2]): 2.73%
- inhibition at 3 µM (IKKa/CHUK): 8.54%
- remaining activity at 3 µM (IKKa/CHUK; [1]): 91.4%
- remaining activity at 3 µM (IKKa/CHUK; [2]): 91.5%
- inhibition at 3 µM (ACK1): 77.5%
- remaining activity at 3 µM (ACK1; [1]): 22.6%
- remaining activity at 3 µM (ACK1; [2]): 22.5%
- inhibition at 3 µM (SIK1): 51.4%
- remaining activity at 3 µM (SIK1; [1]): 48.4%
- remaining activity at 3 µM (SIK1; [2]): 48.7%
- inhibition at 3 µM (ERK5/MAPK7): -0.37%
- remaining activity at 3 µM (ERK5/MAPK7; [1]): 101%
- remaining activity at 3 µM (ERK5/MAPK7; [2]): 99.9%
- inhibition at 3 µM (ZIPK/DAPK3): -11.3%
- remaining activity at 3 µM (ZIPK/DAPK3; [1]): 109%
- remaining activity at 3 µM (ZIPK/DAPK3; [2]): 113%
- inhibition at 3 µM (DYRK1B): 20.2%
- remaining activity at 3 µM (DYRK1B; [1]): 78.6%
- remaining activity at 3 µM (DYRK1B; [2]): 80.9%
